# Data taken from the supplement of paper PMC6045584.
# ± gives the standard deviation of the averaged measurements.
# What was measured:
# [1] = compound: CNCc1ccc(-c2[nH]c3cc(F)cc4c3c2CCNC4=O)cc1; test: surviving fraction relative to DMSO-only wells; higher = less growth inhibition; settings: exposure time: 5 days
# Procedure, shortened: (§1)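 For each tumour cell line, log-phase cells were put into 384-well plates at 250–500 cells per well, then after 24 hours exposed continuously for five days to inhibitors at 0.5, 1, 5, 10, 50, 100, 500 and 1000 nM. Viability was assessed by CellTiter-Glo luminescence, with surviving fraction expressed relative to the median of DMSO-only wells. Lines were screened three times and retained only if replicate Pearson r exceeded 0.7 and median Z' exceeded 0.3.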
# [2] = compound: COc1cc2c(Oc3ccc(NC(=O)C4(C(=O)Nc5ccc(F)cc5)CC4)cc3F)ccnc2cc1OCCCN1CCOCC1 [FORETINIB]; test: as above; settings: exposure time: 5 days
# Procedure, shortened: as §1
Test System,surviving fraction ([1]; 0.5 nM),surviving fraction ([1]; 1 nM),surviving fraction ([1]; 5 nM),surviving fraction ([1]; 10 nM),surviving fraction ([1]; 50 nM),surviving fraction ([1]; 100 nM),surviving fraction ([1]; 500 nM),surviving fraction ([1]; 1000 nM),surviving fraction ([2]; 0.5 nM),surviving fraction ([2]; 1 nM),surviving fraction ([2]; 5 nM),surviving fraction ([2]; 10 nM),surviving fraction ([2]; 50 nM),surviving fraction ([2]; 100 nM),surviving fraction ([2]; 500 nM),surviving fraction ([2]; 1000 nM)
HCC1395 BREAST,0.901 ± 0.016,0.981 ± 0.02,1.09 ± 0.011,0.92 ± 0.058,0.873 ± 0.12,0.828 ± 0.071,0.736 ± 0.041,0.809 ± 0.028,1.07 ± 0.09,1.08 ± 0.11,1.26 ± 0.076,1.17 ± 0.048,1.09 ± 0.083,1.02 ± 0.034,0.939 ± 0.063,0.796 ± 0.085
HCC1806 BREAST,1.05 ± 0.074,0.879 ± 0.021,1.02 ± 0.024,1.07 ± 0.094,0.77 ± 0.076,0.74 ± 0.09,0.601 ± 0.046,0.521 ± 0.026,1.13 ± 0.071,0.942 ± 0.035,1.21 ± 0.031,1.12 ± 0.038,1.16 ± 0.11,1.12 ± 0.056,0.468 ± 0.014,0.452 ± 0.033
HCC1954 BREAST,0.795 ± 0.12,0.797 ± 0.11,0.947 ± 0.039,1.04 ± 0.17,0.61 ± 0.082,0.549 ± 0.019,0.557 ± 0.0088,0.464 ± 0.012,0.975 ± 0.071,1.16 ± 0.25,1.09 ± 0.08,1.14 ± 0.1,0.965 ± 0.14,0.903 ± 0.05,0.6953 ± 0.006,0.418 ± 0.068
HCT15 LARGE INTESTINE,1.03 ± 0.075,1.01 ± 0.16,1.05 ± 0.13,1.05 ± 0.051,0.982 ± 0.1,0.988 ± 0.093,0.996 ± 0.095,1.03 ± 0.13,1.08 ± 0.1,1.09 ± 0.084,1.06 ± 0.09,1.05 ± 0.073,1.07 ± 0.091,1.11 ± 0.097,0.217 ± 0.046,0.203 ± 0.042
HELA CERVIX,1.09 ± 0.093,1.09 ± 0.08,1.08 ± 0.054,1.03 ± 0.07,1.16 ± 0.11,1.12 ± 0.16,1.14 ± 0.079,1.09 ± 0.071,1.09 ± 0.037,1.05 ± 0.091,1.1 ± 0.039,1.05 ± 0.052,1.14 ± 0.11,1.15 ± 0.042,0.659 ± 0.073,0.07233 ± 0.00058
HOS BONE,1.02 ± 0.017,1.05 ± 0.034,1.01 ± 0.015,1.029 ± 0.01,1.01 ± 0.023,0.994 ± 0.022,1.02 ± 0.019,0.9833 ± 0.0055,1.014 ± 0.0075,1.01 ± 0.012,1.057 ± 0.0045,1.01 ± 0.022,1.02 ± 0.075,1.02 ± 0.036,0.55 ± 0.024,0.451 ± 0.013
HOSMNG BONE,0.936 ± 0.055,0.988 ± 0.083,0.94 ± 0.14,0.857 ± 0.03,0.838 ± 0.032,0.885 ± 0.089,0.929 ± 0.11,0.954 ± 0.045,0.915 ± 0.11,0.904 ± 0.074,0.895 ± 0.066,0.855 ± 0.036,0.55 ± 0.039,0.381 ± 0.014,0.128 ± 0.0089,0.065 ± 0.0044
HSSYII SYNOVIAL,0.918 ± 0.023,0.915 ± 0.074,0.881 ± 0.028,0.861 ± 0.027,0.696 ± 0.055,0.653 ± 0.041,0.473 ± 0.05,0.343 ± 0.021,0.972 ± 0.039,0.941 ± 0.031,0.956 ± 0.038,0.92 ± 0.039,0.85 ± 0.028,0.771 ± 0.028,0.208 ± 0.021,0.0695 ± 0.0013
HT1080 SOFT TISSUE,1.04 ± 0.019,1.01 ± 0.014,0.983 ± 0.04,0.968 ± 0.018,0.899 ± 0.018,0.869 ± 0.037,0.818 ± 0.047,0.671 ± 0.068,1.01 ± 0.026,1.06 ± 0.037,1 ± 0.017,1.01 ± 0.033,1.04 ± 0.048,0.996 ± 0.017,0.779 ± 0.025,0.3927 ± 0.0032
HU09 BONE,1.04 ± 0.068,0.977 ± 0.052,1.04 ± 0.072,0.991 ± 0.066,0.965 ± 0.24,0.889 ± 0.13,0.757 ± 0.051,0.669 ± 0.074,0.923 ± 0.11,1.01 ± 0.063,1 ± 0.08,0.958 ± 0.082,0.625 ± 0.1,0.496 ± 0.087,0.201 ± 0.016,0.0877 ± 0.0029
